The target in assay [1] is CNOX of non-cancer MCF-10A human mammary epithelia (Homo sapiens, UniProt Q8TC92). The conditions noted are these: non-cancer cells which lack tNOX (FIG. 4). The method, then: (§1) NADH oxidase activity was determined as the disappearance of NADH measured at 340 nm in a reaction mixture containing 25 mM Tris-Mes buffer (pH 7.2), 1 mM KCN to inhibit low levels of mitochondrial oxidase activity, and 150 ([…] NADH at 37° C. with temperature control (±0.5°) and stirring (14). Activity was measured using paired Hitachi U3210 spectrophotometers. Assays were initiated by addition of NADH. With plasma membranes and whole cells, assays were for 1 min and were repeated on the same sample every 1.5 min for the time indicated. A millimolar extinction coefficient of 6.22 was used to determine specific activity. Proteins were estimated by the bicinchoninic acid method with bovine serum albumin as standard.

Assay [2] has as its system CNOX activity of soybean plasma membranes. To be noted: plasma membranes from dark-grown soybean hypocotyls, lack tNOX (FIG. 5). The method, then:
as §1

Assay [3] relates to HeLa cells. The assay is described as follows: Growth of HeLa cells in culture (96-well crystal violet). Type of assay: cell-based. The conditions noted are these: Homo sapiens, 48 and 72 h of treatment (FIG. 6), read-out: EC50 for inhibition of growth of HeLa cells. The method, then:
HeLa (ATCC CCL-2) human cervical adenocarcinoma cells were cultured in minimal essential medium (Eagle), with 2 mM L-glutamine and Earle's balanced salt solution adjusted to contain 1.5 g/L sodium bicarbonate, 0.2 mM non-essential amino adds, 1.0 mM sodium pyruvate and supplemented with 10% bovine calf serum (heat-inactivated) plus 50 mg/L gentamycin sulfate (Sigma).
HeLa (5×10^4) or CHO (10^4) cells were distributed into each plate well (Costar tissue culture plate).

Assay [4] deals with human mammary cancer (BT-20) cells. Briefly: cells. To be noted: BT-20, read-out: EC50 for inhibition of growth of BT-20 cells. The method, then:
(§2) Growth was determined using a 96-well plate assay as described by Lin et al. (17). HeLa (5×10^4) or CHO (10^4) cells were distributed into each plate well (Costar tissue culture plate). The cells were grown at 37° C. for 24 h after which the substances to be evaluated were added followed by incubation for an additional 48 or 72 h as indicated. Medium was removed and the cells were washed with phosphate-buffered saline and then fixed by addition of […] 2.5% (v/v) glutaraldehyde for 0.5 h followed by a distilled water wash. The cells were stained with […] 1% aqueous crystal violet for 0.5 h, washed exhaustively with distilled water followed by […] 33% (v/v) acetic acid for 5 min. The absorbance was determined at 580 nm using an automated plate reader. Growth was determined according to the formula [(b−c)×100]/(a−c)] where a=absorbance of cells in medium without treatment b=cells in medium with treatment and c=medium alone (background).

Assay [5] relates to non-cancer MCF-10A cells. To be noted: compared with cancer cells. The method, then:
as §2

In assay [6] the target is T1, tNOX from HeLa (Homo sapiens, UniProt Q16206).
T1 construct: The cells were thawed at room temperature, resuspended and incubated at 37° C. for 1 h to release the protein
T1 sequence (Q16206 1-610): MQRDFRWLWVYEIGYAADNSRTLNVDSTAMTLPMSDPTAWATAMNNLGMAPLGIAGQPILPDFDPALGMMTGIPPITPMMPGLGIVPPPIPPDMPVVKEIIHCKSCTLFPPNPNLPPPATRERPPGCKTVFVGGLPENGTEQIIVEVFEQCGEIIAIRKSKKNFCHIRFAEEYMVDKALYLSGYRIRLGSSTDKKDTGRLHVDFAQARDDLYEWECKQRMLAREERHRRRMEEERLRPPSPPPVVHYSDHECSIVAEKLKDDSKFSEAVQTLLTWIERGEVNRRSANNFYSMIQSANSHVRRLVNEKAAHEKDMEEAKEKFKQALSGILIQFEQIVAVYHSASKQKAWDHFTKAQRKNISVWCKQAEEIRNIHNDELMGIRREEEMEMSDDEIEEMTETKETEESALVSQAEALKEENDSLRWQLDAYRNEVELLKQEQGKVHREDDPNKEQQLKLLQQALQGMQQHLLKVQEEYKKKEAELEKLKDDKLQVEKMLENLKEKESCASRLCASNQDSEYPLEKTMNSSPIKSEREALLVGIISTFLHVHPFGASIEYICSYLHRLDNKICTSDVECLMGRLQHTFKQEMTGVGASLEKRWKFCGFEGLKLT
The assay is described as follows: Spectrophotometric NADH oxidase assay, NOX activity from the HeLa cell surface. Type of assay: biochemical. The conditions noted are these: for Response of NOX activity from the HeLa cell surface when combined with sulforaphane: sequential additions, preceding or following sulforaphane (FIGS. 7, 8). The method, then: HeLa S cells (grown in suspension) were collected by centrifugation and shipped frozen by a commercial supplier (Cellex Biosciences, Minneapolis, Minn.) In 0.1 m sodium acetate, pH 5, in a ratio of 1 mL packed cell volume to 1 mL acetate. The cells were thawed at room temperature, resuspended and incubated at 37° C. for 1 h to release the protein. The cells were removed by centrifugation at 37000 g for 60 min and the cell-free supernatants were refrozen and stored in 1 mL samples at −70° C.

Assay [7] deals with tNOX of 4T1 mouse mammary cells (Mus musculus, UniProt Q8R0Z2). The assay is described as follows: biochemical. The method, then:
as §1

Like-named read-outs stand apart in the source and are kept apart here.

CNOX of non-cancer MCF-10A human mammary epithelia, sequence (Q8TC92 whole entry): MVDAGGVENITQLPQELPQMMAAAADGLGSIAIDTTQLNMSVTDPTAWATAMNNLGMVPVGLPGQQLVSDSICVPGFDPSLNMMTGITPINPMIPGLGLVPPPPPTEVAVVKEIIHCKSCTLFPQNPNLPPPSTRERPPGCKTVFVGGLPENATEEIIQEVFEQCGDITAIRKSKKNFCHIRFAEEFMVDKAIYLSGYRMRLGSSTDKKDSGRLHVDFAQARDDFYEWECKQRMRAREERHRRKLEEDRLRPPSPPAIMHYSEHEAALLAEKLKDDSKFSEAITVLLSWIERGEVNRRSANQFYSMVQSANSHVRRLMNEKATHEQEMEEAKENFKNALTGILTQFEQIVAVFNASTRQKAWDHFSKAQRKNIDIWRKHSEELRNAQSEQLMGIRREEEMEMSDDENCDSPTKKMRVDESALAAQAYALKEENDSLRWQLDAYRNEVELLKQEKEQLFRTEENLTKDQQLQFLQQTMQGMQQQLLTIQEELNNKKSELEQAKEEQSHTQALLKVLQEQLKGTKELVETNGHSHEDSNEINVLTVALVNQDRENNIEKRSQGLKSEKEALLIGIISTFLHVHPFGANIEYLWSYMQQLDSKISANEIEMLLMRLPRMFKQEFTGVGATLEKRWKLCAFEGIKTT
tNOX of 4T1 mouse mammary cells, sequence (Q8R0Z2 whole entry): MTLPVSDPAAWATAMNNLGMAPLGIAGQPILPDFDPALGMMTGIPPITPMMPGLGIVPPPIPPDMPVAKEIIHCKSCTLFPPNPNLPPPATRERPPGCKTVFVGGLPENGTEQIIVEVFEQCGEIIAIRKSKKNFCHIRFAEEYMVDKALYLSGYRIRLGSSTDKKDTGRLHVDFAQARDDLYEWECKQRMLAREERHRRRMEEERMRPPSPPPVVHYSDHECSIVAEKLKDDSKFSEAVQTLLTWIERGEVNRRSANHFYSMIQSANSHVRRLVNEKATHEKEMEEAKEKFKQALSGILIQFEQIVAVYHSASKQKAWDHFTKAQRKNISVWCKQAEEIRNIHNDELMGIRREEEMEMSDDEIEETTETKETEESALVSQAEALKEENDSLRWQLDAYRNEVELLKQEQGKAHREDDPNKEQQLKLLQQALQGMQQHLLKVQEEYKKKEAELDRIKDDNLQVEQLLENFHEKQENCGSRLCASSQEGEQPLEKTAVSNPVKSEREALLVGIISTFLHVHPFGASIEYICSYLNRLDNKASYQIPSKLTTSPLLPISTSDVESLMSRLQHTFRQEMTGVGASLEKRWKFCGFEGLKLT

Broadly, the EC50 is the concentration that produces a half-maximal response. `C[S@@+]([O-])CCCCN=C=S` [L-Sulforaphane]: the results for the “Effect on CNOX (NOX activity) of MCF-10A human mammary epithelia” value in assay [1] and in assay [1] (listed as Sulforaphane) were “unaffected” and “does not inhibit”, respectively. The entries for the “Effect on CNOX activity of soybean plasma membranes” value in assay [2] and in assay [2] (listed as Sulforaphane) were “unaffected” and “does not inhibit”, respectively. In addition, the 50% effective concentration (EC50) in assay [3] was 100 to 1000 µM; in assay [4], 100 to 1000 µM; in assay [6] (NOX activity from HeLa cell surface (FIGS. 1 and 2)), ~1000 µM; in assay [7], ~1000 µM. In addition, in assay [5], the “Inhibition of growth of non-cancer MCF-10A cells” value is given as “inhibited to nearly the same extent as the cancer cells”.
Consider `COc1cc(CNC(=O)CCCC/C=C/C(C)C)ccc1O` [capsaicin, 8-methyl-N-vanillyl-6-noneamide], for which the “Response of NOX activity from the HeLa cell surface when combined with sulforaphane” value (“Response of NOX activity” for short) in assay [6] is listed as “beneficial response”.
Take `COc1cc(CN)ccc1O` [vanillylamine]: the “Response of NOX activity” value in assay [6] is “beneficial response”.
(−)-epigallocatechin gallate [EGCg]: the “Response of NOX activity” value in assay [6] is on record as “antagonistic”.
